One assay deals with rumen fluid. In words: in vitro rumen technique, propionic acid production. The following applies: for increase in propionic acid: comparison with Salinomycin; for increase in production of propionic acid over control: comparison with Monensin. Also noted: species or system calf. As for the experimental part: The value of animal feeds generally has been determined directly by feeding the animal. British Pat. No. 1,197,826 details an in vitro rumen technique whereby the changes occurring in feeds brought about by microorganisms are measured more readily and with great accuracy in the evaluation of animal feeds. This technique involves the use of an apparatus in which the digestive processes of the animals are conducted and studied in vitro. The animal feeds, rumen inoculum and various growth promotants are introduced into and withdrawn from a laboratory unit under carefully controlled conditions and the changes taken place are studied critically and progressively during the consumption of the feed by the microorganisms. […] The change in propionic acid content is expressed as percent of the propionic acid content found in the control rumen fluid. Long term in vivo feeding studies are used to show a reliable correlation between propionic acid increase in the rumen fluid and improved animal performance.
Rumen fluid is collected from a fistulated calf which is fed on a commercial fattening ration plus hay. The rumen fluid is immediately filtered through cheese cloth, and 10 ml added to a 50 ml conical flask containing 400 mg of standard substrate (68% corn starch +17% cellulose +15% extracted soybean meal), 10 ml of a pH 6.8 buffer and the test compound. The flasks are gassed with oxygen free nitrogen for about two minutes, and incubated in a shaking water bath at 39° C. for about 16 hours. All tests are conducted in triplicate.
After incubation, 5 ml of the sample is mixed with 1 ml of 25% metaphosphoric acid. After 10 minutes 0.25 ml of formic acid is added and the mixture centrifuged at 1500 RPM for 10 minutes. Samples are then analyzed by gas-liquid chromatography by the method of D. W. Kellog, J. Dairy Science, 52, 1690 (1969). Peak heights for acetic, propionic and butyric acids are determined for samples from untreated and treated incubation flasks.

Assay [1] concerns Gram-positive microorganisms. In words: inhibitory action against growth of Gram-positive microorganisms. Type of assay: cell-based. The following applies: in vitro. On the procedure:
In Table I, below, the results of in vitro MIC tests are summarized. For this test each organism is inoculated in a series of test tubes of CP-63,517 to determine the minimal concentration of the antibiotic in mcg/ml which inhibits the growth of the organism over a period of 24 hours (MIC).

As for `COC1CCC(OC2CC3(CC(O)C(C)C(C(C)C=C(C)C(=O)C(C)CC(C)C(=O)O)O3)OC2(C)C2CCC(C)C3(OC(C4OC(O)(CO)C(C)CC4C)CC3C)O2)OC1C` (centres unmarked) [CP-63,517], the “increase in propionic acid” value in the assay on rumen fluid (5 μg/ml) is “about 66%”; with rumen fluid (20 μg/ml) it was “about 86%”. The “increase in production of propionic acid over control” value in the assay with rumen fluid (10 micrograms per milliliter (10 μg/ml)) came out at 95%; in the assay on rumen fluid (20 micrograms per milliliter) it was 96%. Further, the “antibacterial / growth inhibitory activity” value in assay [1] is listed as “exhibits inhibitory action against the growth of a number of Gram-positive microorganisms”.

For the origin of these results see patent publication US4552843A, “Process for producing an acidic polycyclic ether antibiotic by cultivation of a novel strain of Streptomyces endus subspecies aureus” (Pfizer Inc., priority 1984, dated 1985).
